The results in this text go back to patent US5430063A, “Phenoxyphenyl derivatives, compositions thereof and methods for their use” (Akzo N.V., priority 1991, dated 1995).

Broadly, the half-life is the time needed for the level to fall by half in the phase considered.

A short description of one data set: biological half-life for sleep-wake behaviour in rats. To be noted: rat, in vivo. The protocol: The biological half-lives of the phenoxyphenyl derivatives were determined for the sleep-wake behaviour in rats and compared with the half-lives of the prior art compounds.
Compound `CN(C)Cc1ccccc1Oc1ccc(Cl)cc1.O=C(O)/C=C\C(=O)O` [Example 4, 2-(4-chlorophenoxy)-N,N-dimethylbenzenemethanamine (Z)-2-butenedioate] showed a half-life of 1 h.

Regarding `NCc1ccccc1Sc1ccccc1` [2-(phenylthio)benzenemethanamine, reference compound], the half-life was 0.5 h. Still for that read-out and setting: under `COc1ccc(Sc2ccccc2CN)cc1` [2-[(4-methoxyphenyl)thio]-benzenemethanamine, reference compound] stands below 0.5 h; under `Clc1ccc(Oc2ccccc2C2=NCCN2)cc1Cl.O=C(O)/C=C\C(=O)O` [Example 6a, 2-[2-(3,4-dichlorophenoxy)phenyl]-4,5-dihydro-1H-imidazole (Z)-2-butenedioate], 1.5 to 2.5 h.

The data set is the same for the next values; noted with them: rat, in vivo; biological half-life, sleep-wake behaviour in rats; read-out: half-life (converted).
Regarding `Cl.NCc1ccccc1Oc1ccc(Cl)c(Cl)c1` [Example 2, 2-(3,4-dichlorophenoxy)benzenemethanamine hydrochloride], the half-life is 2.5 h. As to `Cl.NCc1ccccc1Oc1ccc(Cl)cc1` [Example 1, 2-(4-chlorophenoxy)benzenemethanamine hydrochloride], the half-life is 1 to 2.5 h. On the same count and under the same terms, for `Clc1ccc(Oc2ccccc2C2=NCCN2)cc1.O=C(O)/C=C\C(=O)O` [Example 5, 2-[2-(4-chlorophenoxy)phenyl]-4,5-dihydro-1H-imidazole (Z)-2-butenedioate] the value was 3 h.
